Test results taken from ChEMBL document CHEMBL1144136, “Anti-HIV-1 protease triterpenoid saponins from the seeds of Aesculus chinensis” (J Nat Prod, 1999).

Columns and labels:
[1] = molecular target: Protease (Human immunodeficiency virus 1) (UniProt Q9YQ12); assay: Inhibition of HIV1 protease at 100 uM
Protease = Protease (Human immunodeficiency virus 1, UniProt Q9YQ12); assay: Inhibition of HIV1 protease
Chain of Protease (Q9YQ12 whole entry): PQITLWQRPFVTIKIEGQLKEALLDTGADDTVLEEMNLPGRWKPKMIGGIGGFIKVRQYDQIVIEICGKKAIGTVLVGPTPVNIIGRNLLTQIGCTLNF

Chain of Protease (Human immunodeficiency virus 1) (Q9YQ12 as listed by the source): as the sequence (Q9YQ12 whole entry) above

| SMILES | inhibition [1] [%] | IC50 (Protease) [µM] |
| --- | --- | --- |
| C/C=C(\C)C(=O)O[C@H]1[C@H](O)[C@]2(COC(C)=O)[C@H](O)C[C@]3(C)C(=CC[C@@H]4[C@@]5(C)CC[C@H](O[C@@H]6O[C@H](C(=O)O)[C@@H](O[C@@H]7O[C@H](CO)[C@@H](O)[C@H](O)[C@H]7O)[C@H](O)[C@H]6O[C@@H]6O[C@H](CO)[C@@H](O)[C@H](O)[C@H]6O)[C@](C)(CO)[C@@H]5CC[C@]43C)[C@@H]2CC1(C)C | 39 | – |
| C/C=C(/C)C(=O)OC[C@@]12[C@H](O)C[C@]3(C)C(=CC[C@@H]4[C@@]5(C)CC[C@H](O[C@@H]6O[C@H](C(=O)O)[C@@H](O[C@@H]7O[C@H](CO)[C@@H](O)[C@H](O)[C@H]7O)[C@H](O)[C@H]6O[C@@H]6O[C@H](CO)[C@@H](O)[C@H](O)[C@H]6O)[C@](C)(CO)[C@@H]5CC[C@]43C)[C@@H]1CC(C)(C)[C@@H](O)[C@@H]2O | 12.5 | – |
| C/C=C(/C)C(=O)O[C@H]1[C@H](O)C(C)(C)C[C@H]2C3=CC[C@@H]4[C@@]5(C)CC[C@H](O[C@@H]6O[C@H](C(=O)O)[C@@H](O[C@@H]7O[C@H](CO)[C@@H](O)[C@H](O)[C@H]7O)[C@H](O)[C@H]6O[C@@H]6O[C@H](CO)[C@@H](O)[C@H](O)[C@H]6O)[C@](C)(CO)[C@@H]5CC[C@@]4(C)[C@]3(C)C[C@@H](O)[C@]21COC(C)=O | 34 | – |
| C/C=C(\C)C(=O)OC[C@@]12[C@H](O)C[C@]3(C)C(=CC[C@@H]4[C@@]5(C)CC[C@H](O[C@@H]6O[C@H](C(=O)O)[C@@H](O[C@@H]7O[C@H](CO)[C@@H](O)[C@H](O)[C@H]7O)[C@H](O)[C@H]6O[C@@H]6O[C@H](CO)[C@@H](O)[C@H](O)[C@H]6O)[C@](C)(CO)[C@@H]5CC[C@]43C)[C@@H]1CC(C)(C)[C@@H](O)[C@@H]2O | 15.9 | – |
| C/C=C(/C)C(=O)O[C@H]1[C@H](OC(C)=O)[C@]2(CO)[C@H](O)C[C@]3(C)C(=CC[C@@H]4[C@@]5(C)CC[C@H](O[C@@H]6O[C@H](C(=O)O)[C@@H](O[C@@H]7O[C@H](CO)[C@@H](O)[C@H](O)[C@H]7O)[C@H](O)[C@H]6O[C@@H]6O[C@H](CO)[C@@H](O)[C@H](O)[C@H]6O)[C@](C)(CO)[C@@H]5CC[C@]43C)[C@@H]2CC1(C)C [ESCIN IB] | – | 50 |
| C/C=C(/C)C(=O)O[C@H]1[C@H](O)[C@]2(COC(C)=O)[C@H](O)C[C@]3(C)C(=CC[C@@H]4[C@@]5(C)CC[C@H](O[C@@H]6O[C@H](C(=O)O)[C@@H](O[C@@H]7O[C@H](CO)[C@@H](O)[C@H](O)[C@H]7O)[C@H](O)[C@H]6O[C@@H]6O[C@H](CO)[C@@H](O)[C@H](O)[C@H]6O)[C@](C)(CO)[C@@H]5CC[C@]43C)[C@@H]2CC1(C)C | 14.7 | – |
| C/C=C(\C)C(=O)O[C@H]1[C@H](OC(C)=O)[C@]2(CO)[C@H](O)C[C@]3(C)C(=CC[C@@H]4[C@@]5(C)CC[C@H](O[C@@H]6O[C@H](C(=O)O)[C@@H](O[C@@H]7O[C@H](CO)[C@@H](O)[C@H](O)[C@H]7O)[C@H](O)[C@H]6O[C@@H]6O[C@H](CO)[C@@H](O)[C@H](O)[C@H]6O)[C@](C)(CO)[C@@H]5CC[C@]43C)[C@@H]2CC1(C)C [ESCIN IA] | – | 35 |
| C/C=C(\C)C(=O)O[C@H]1[C@H](O)C(C)(C)C[C@H]2C3=CC[C@@H]4[C@@]5(C)CC[C@H](O[C@@H]6O[C@H](C(=O)O)[C@@H](O[C@@H]7O[C@H](CO)[C@@H](O)[C@H](O)[C@H]7O)[C@H](O)[C@H]6O[C@@H]6O[C@H](CO)[C@@H](O)[C@H](O)[C@H]6O)[C@](C)(CO)[C@@H]5CC[C@@]4(C)[C@]3(C)C[C@@H](O)[C@]21COC(C)=O | 35.2 | – |
